The nature of data set [1]: physchem. Format: physicochemical. The text has this:
S-[2-[(1-Iminoethyl)amino]ethyl]-2-methyl-L-cysteine maleate hydrochloride crystals are birefringent with positive elongation when analyzed by polarized light microscopy.
Examples 7 and 8 only differ in the nature of agitation afforded to the system. […] The bead was agitated with a magnetic plate. […] Both the examples used 2.0 molar equivalents of maleic acid and 0.5 molar equivalent of HCl for each mole of S-[2-[(1-Iminoethyl)amino]ethyl]-2-methyl-L-cysteine. […] In Example 9, the water content of the system was 2.3% before the addition of acetonitrile, while the ratio of acetonitrile to DMF was 1.98 on weight/weight basis.

The nature of data set [2]: Direct compression without excipients: tablet hardness and disintegration. Format: physicochemical. The settings on record: for tablet hardness: 100-mg compacts, no excipients. The protocol: The powder was evaluated for direct compression without any excipients. Compacts of 100-mg in weight were manufactured using an 8/32 inch (6.35-mm) round concave tooling. Tablets were compressed at various compression forces and evaluated for strength, thickness and disintegration. […] Relatively strong small tablets ( 8/32 inch), as hard as 11-kP, are possible with compression force between 900 and 1000 kg. Tablet strength reaches an apparent maximum between 900 and 1000 kg compression force. Minor adhesion to the punch and die walls were observed during compression experiments. However, the sticking was considered to be a minor problem and could easily be resolved by using an appropriate lubricant. Tablet disintegration times were also evaluated for compacts of orderly packed agglomerates of S-[2-[(1-Iminoethyl)amino]ethyl]-2-methyl-L-cysteine maleate hydrochloride crystals. Three tablets were compressed with compression forces between 500 and 600, corresponding to 8 kP tablet hardness for this material.

Data set [3] in a line: Bulk and tapped powder density. It counts as physicochemical. The note with it: orderly packed agglomerates of Example 20. The text has this: (§1) Orderly packed agglomerates of S-[2-[(1-Iminoethyl)amino]ethyl]-2-methyl-L-cysteine maleate hydrochloride crystals made in Example 20 were studied to determine its powder characteristics that are relevant to the development of a pharmaceutical composition with S-[2-[(1-Iminoethyl)amino]ethyl]-2-methyl-L-cysteine maleate hydrochloride together with a pharmaceutically acceptable carrier. Before testing, the solids were passed through 80-mesh screen corresponding to 177 micrometer opening in order to fragment some very large loose aggregates of the orderly packed agglomerates. The properties tested included powder flow characteristics, powder particle size distribution, powder bulk and tapped density and powder compressibility and compaction.
Bulk powder density was evaluated as the mass of material within a 50-ml graduated cylinder.

Data set [4] in a line: Particle size distribution by sieve analysis. It counts as physicochemical.
Source text: as §1
Particle size distribution of the powder was measured using sieve analysis. The mean particle size distribution was calculated using the geometric mean method. […] Only 1.63% of material was considered as fines, less than 75-μm, with more than 90% within 105-250-μm. More than 75% of the material was within 105-150-μm. The tight range in the powder particle size distribution for orderly packed agglomerates is between 100 and 200-μm, which is highly desirable for the development of a pharmaceutical composition with S-[2-[(1-Iminoethyl)amino]ethyl]-2-methyl-L-cysteine maleate hydrochloride together with a pharmaceutically acceptable carrier.

The format of data set [5] is physicochemical. The text has this: Additionally, the presence of excess maleic acid dramatically increases the solubility.
1-Butanol was selected as the best solvent to explore the possibility of utilizing a high boiling solvent that can easily be exchanged with water from the upstream aqueous chromatography purification step. […] This process was again designed to be very similar to the DMF/acetonitrile process. Following is a description of the initial process run at the 1 L scale.

Data set [6] in a line: Powder flow, aperture flow tester. Format: physicochemical.
Source text: as §1, with “compaction. Powder flow was evaluated using an aperture flow tester, measured as the smallest opening at which the powder freely flows through. The powder flow test was repeatedly successful through a 6-mm aperture opening. A powder flow of 6-mm is considered good for formulation development of S-[2-[(1-Iminoethyl)amino]ethyl]-2-methyl-L-cysteine maleate hydrochloride crystals. Successful repetition of flow through a narrower 4-mm opening was, however, dependent on how the powder was introduced to the tester.” for “compaction.”

Data set [7] is described as follows: Moisture sorption study by DVS moisture balance. It counts as physicochemical. The settings on record: 25° C., sample of Example 10. The text has this:
FIG. 4 is a plot of a moisture sorption study of the crystalline S-[2-[(1-Iminoethyl)amino]ethyl]-2-methyl-L-cysteine maleate hydrochloride. […] Between 70 and 9% R.H., another 58% moisture was taken up by the solids. It is presumed that at 90% R.H. the crystal structure was destroyed to produce highly hygroscopic amorphous solids. During the de-sorption cycle (from 90 to 30% R.H.), these solids transformed into a mixture of form II of the crystalline S-[2-[(1-Iminoethyl)amino]ethyl]-2-methyl-L-cysteine maleate and amorphous zwitterion with excess hydrogen chloride. Subsequent de-sorption and re-sorption behavior was very similar to form II of the crystalline S-[2-[(1-Iminoethyl)amino]ethyl]-2-methyl-L-cysteine maleate. Powder x-ray analysis on the solids at the end of the experiment confirmed the presence of both form II the crystalline S-[2-[(1-Iminoethyl)amino]ethyl]-2-methyl-L-cysteine maleate and amorphous solids.

The mark [8] stands for this setting: orderly packed agglomerates of Example 20.

On to `CC(=N)NCCSC[C@](C)(N)C(=O)O` [S-[2-[(1-Iminoethyl)amino]ethyl]-2-methyl-L-cysteine], for which, in data set [1], the “solubility in water (in words)” value was “highly soluble in water”.
With `CC(=N)NCCSC[C@](C)(N)C(=O)O.Cl.O=C(O)/C=C\C(=O)O` [S-[2-[(1-Iminoethyl)amino]ethyl]-2-methyl-L-cysteine maleate hydrochloride], in data set [2] (8/32 inch, compression force between 900 and 1000 kg), the tablet hardness is given as ≤ 11 kP. In data set [2] (compression forces between 500 and 600), this compound registered a tablet hardness of 8 kP. For the same compound, in data set [2] (three tablets, compression forces between 500 and 600, 8 kP hardness), the tablet disintegration time entry is on record as “less than 2 minutes”. In data set [3], this compound returned a bulk powder density of 0.41 g/mL and a tapped density of 0.50 g/mL. In addition, the “solubility in water (in words)” value in data set [1] is listed as “highly soluble in water”. For the same compound, the solubility (commonly how much of the substance goes into solution per volume) in data set [1] (water) is > 150 mg/mL. Besides, in data set [4] (setting [8]), the “fraction of fines, less than 75-μm” value came to 1.63%; the “fraction of material within 105-150-μm” value is “More than 75%”; the “fraction of material within 105-250-μm” value is recorded as “more than 90%”. Further, in data set [4] (orderly packed agglomerates of Example 20, geometric mean method), the mean particle size turned out to be 134 micrometers. In data set [5], the “solubility in 1-butanol” value came to 0.05 wt % and the solubility in methanol was determined as 6.2 wt %. In data set [6] (setting [8]), this compound showed a compressibility index of 17.8%. Besides, the “powder flow, smallest aperture opening at which the powder freely flows through” value in data set [6] (orderly packed agglomerates of Example 20, passed through 80-mesh screen) amounted to 6 mm. For the same compound, the moisture uptake result in data set [7] (between 0 and 70% relative humidity) is “approximately 1.5%”. Moreover, in data set [7] (between 70 and 9% R.H. as printed), the “further moisture taken up by the solids” value was determined as 58%.

Values taken from patent publication US7767850B2, “S-[2-[(1-iminoethy)amino]ethyl]-2-methyl-L-cysteine maleate hydrochloride crystalline salt” (Pfizer Inc., priority 2003, dated 2010).
